Data reported in patent US11976072B2, “Diacylglycerol kinase modulating compounds” (priority 2021, dated 2024).
Like-named read-outs stand apart in the source and are kept apart here.

Columns and labels:
human DGKα = human DGKα (Homo sapiens, UniProt P23743); experiment: DGKα Biochemical Activity Assay (ADP-Glo); details: recombinant DGKα 1 nM, 100 μM ATP, 18:1 DAG/POPS/octylglucoside micelles, 1 hour at 25° C.; geometric mean; read-out: HTBS DGKa 1X ATP KM IC50;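 further: luminescent detection of ADP produced as DGKα phosphorylates DAG to phosphatidic acid, IC50 from four-parameter nonlinear curve fit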
[1] = system: Jurkat NFκB-luciferase cells; experiment: Jurkat NFκB-Luciferase Assay; type: cell-based; details: Homo sapiens
Summary of the method: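 Jurkat NFκB-luciferase reporter cells at 1 million cells/ml in RPMI with 10% FBS were added to antibody-coated, compound-containing wells. Luciferase activity read by One-Glo Ex luminescence 7 minutes after reagent addition.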

[2] = Jurkat NFκB-luciferase cells activated with anti-CD3 antibody (OKT3), 2.5 hrs at 37° C., geometric mean, read-out: DGK NFKb Luciferase EC50
[3] = Jurkat, […], read-out: DGK NFKb Luciferase EC50 (nM)

human DGKα, sequence (P23743 whole entry): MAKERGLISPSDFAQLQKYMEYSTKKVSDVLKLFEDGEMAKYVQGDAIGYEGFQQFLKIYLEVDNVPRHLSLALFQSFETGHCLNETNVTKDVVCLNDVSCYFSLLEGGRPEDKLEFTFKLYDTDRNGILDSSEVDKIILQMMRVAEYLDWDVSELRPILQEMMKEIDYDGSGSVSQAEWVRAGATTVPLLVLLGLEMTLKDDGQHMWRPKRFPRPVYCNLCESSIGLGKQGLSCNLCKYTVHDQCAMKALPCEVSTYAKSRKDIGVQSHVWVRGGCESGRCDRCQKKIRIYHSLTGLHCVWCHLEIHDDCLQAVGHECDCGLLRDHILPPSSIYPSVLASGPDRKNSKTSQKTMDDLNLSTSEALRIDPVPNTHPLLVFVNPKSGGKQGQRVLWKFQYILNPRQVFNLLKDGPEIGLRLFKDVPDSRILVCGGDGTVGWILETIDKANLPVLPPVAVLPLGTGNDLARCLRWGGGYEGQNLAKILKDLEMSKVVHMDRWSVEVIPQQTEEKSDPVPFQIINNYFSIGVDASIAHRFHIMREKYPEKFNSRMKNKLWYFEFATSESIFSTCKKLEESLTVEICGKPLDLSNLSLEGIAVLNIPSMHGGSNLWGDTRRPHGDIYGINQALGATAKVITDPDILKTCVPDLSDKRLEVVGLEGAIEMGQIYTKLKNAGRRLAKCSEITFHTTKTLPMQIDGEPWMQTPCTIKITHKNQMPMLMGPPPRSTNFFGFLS

Compound	IC50 (human DGKα) [nM]	EC50 [1, 2] [nM]	EC50 [1, 3] [nM]
Cc1nnc2nc(N3CCOCc4c(C#CC(C)(C)C(C)(F)F)cccc43)c3c(F)cccc3n12 [Example 187, 6-(4,4-Difluoro-3,3-dimethyl-pent-1-ynyl)-1-(6-fluoro-1-methyl-[1,2,4]triazolo[4,3-a]quinazolin-5-yl)-3,5-dihydro-2H-4,1-benzoxazepine]	12.3	1.45	–
Cc1nnc2nc(N3CCCCc4c(C#CC(C)(C)C#N)cccc43)c3c(F)cccc3n12 [Example 188, 4-[1-(6-Fluoro-1-methyl-[1,2,4]triazolo[4,3-a]quinazolin-5-yl)-2,3,4,5-tetrahydro-1-benzazepin-6-yl]-2,2-dimethyl-but-3-ynenitrile]	9.86	2.12	–
Cc1nnc2nc(N3CCCCc4c(C#CC5(C(F)(F)F)CC5)cccc43)c3c(F)cccc3n12 [Example 192]	54.9	0.892	–
CCC1(C#Cc2cccc3c2COCCN3c2nc3nnc(C)n3c3cccc(F)c23)CC1 [Example 195, 6-[2-(1-Ethylcyclopropyl)ethynyl]-1-(6-fluoro-1-methyl-[1,2,4]triazolo[4,3-a]quinazolin-5-yl)-3,5-dihydro-2H-4,1-benzoxazepine]	13.3	0.382	–
Cc1nnc2nc(N3CCCc4c(C#CC5(O)CCC6(CC5)CC6)cccc43)c3c(F)cccc3n12 [Example 197]	11	1.38	–
Cc1nnc2nc(N3CCCc4c(C#CC5(O)CC6CC(C6)C5)cccc43)c3c(F)cccc3n12 (stereo not shown) [Example 198, 3-((1-(6-fluoro-1-methyl-[1,2,4]triazolo[4,3-a]quinazolin-5-yl)-1,2,3,4-tetrahydroquinolin-5-yl)ethynyl)bicyclo[3.1.1]heptan-3-ol]	10.8	–	0.508
Cc1nnc2nc(N3CCCc4c(C#CC5(O)C[C@H]6C[C@H]6C5)cccc43)c3c(F)cccc3n12 (stereo partly drawn) [Example 199, (1R,5S)-3-((1-(6-fluoro-1-methyl-[1,2,4]triazolo[4,3-a]quinazolin-5-yl)-1,2,3,4-tetrahydroquinolin-5-yl)ethynyl)bicyclo[3.1.0]hexan-3-ol]	3.83	–	1.62
OC1(C#Cc2cccc3c2CCCN3c2nc3nncn3c3cccc(F)c23)CCCCC1 [Example 202, 1-((1-(6-Fluoro-[1,2,4]triazolo[4,3-a]quinazolin-5-yl)-1,2,3,4-tetrahydroquinolin-5-yl)ethynyl)cyclohexan-1-ol]	3.88	–	2.04
Cc1nnc2nc(N3CCCc4c(C#CC5(O)CCCC5)cccc43)c3c(F)cccc3n12 [Example 205, 1-((1-(6-fluoro-1-methyl-[1,2,4]triazolo[4,3-a]quinazolin-5-yl)-1,2,3,4-tetrahydroquinolin-5-yl)ethynyl)cyclopentan-1-ol]	13.9	16.6	–
Cc1nnc2nc(N3CCCc4c(C#CC5(O)CCCCC5)cccc43)c3c(F)cccc3n12 [Example 206, 1-((1-(6-fluoro-1-methyl-[1,2,4]triazolo[4,3-a]quinazolin-5-yl)-1,2,3,4-tetrahydroquinolin-5-yl)ethynyl)cyclohexan-1-ol]	13.5	–	5.07
Cc1nnc2nc(N3CCOCc4c(C#CC(C)(C)C(F)(F)F)cccc43)c3c(F)c(F)ccc3n12 [Example 207, 1-(6,7-Difluoro-1-methyl-[1,2,4]triazolo[4,3-a]quinazolin-5-yl)-6-(4,4,4-trifluoro-3,3-dimethyl-but-1-ynyl)-3,5-dihydro-2H-4,1-benzoxazepine]	14.9	4.04	–
CC(F)(F)C1(C#Cc2cccc3c2CCCCN3c2nc3nncn3c3ccc(F)c(F)c23)CC1 [Example 208, 5-(6-((1-(1,1-Difluoroethyl)cyclopropyl)ethynyl)-2,3,4,5-tetrahydro-1H-benzo[b]azepin-1-yl)-6,7-difluoro-[1,2,4]triazolo[4,3-a]quinazoline]	18.7	0.815	–
OC1(C#Cc2cccc3c2CCCN3c2nc3nncn3c3ccc(F)c(F)c23)CCCCC1 [Example 209, 1-[2-[1-(6,7-Difluoro-[1,2,4]triazolo[4,3-a]quinazolin-5-yl)-3,4-dihydro-2H-quinolin-5-yl]ethynyl]cyclohexanol]	2.19	–	1.17
Cc1nnc2nc(N3CCCc4c(C#Cc5cn[nH]c5)cccc43)c3c(F)cccc3n12 [Example 212, 5-(5-((1H-pyrazol-4-yl)ethynyl)-3,4-dihydroquinolin-1(2H)-yl)-6-fluoro-1-methyl-[1,2,4]triazolo[4,3-a]quinazoline]	18.6	9.7	–

Continued by falling IC50 (human DGKα), values first:

IC50 (human DGKα) [nM]	EC50 [1, 2] [nM]	Compound	EC50 [1, 3] [nM]
7.51	0.787	Cc1nnc2nc(N3CCOCc4c(C#CC(C)(C)C(C)(F)F)cccc43)c3c(F)c(F)ccc3n12 [Example 184, 6-(4,4-Difluoro-3,3-dimethyl-pent-1-ynyl)-1-(6,7-difluoro-1-methyl-[1,2,4]triazolo[4,3-a]quinazolin-5-yl)-3,5-dihydro-2H-4,1-benzoxazepine]	–
6.91	1.46	Cc1nnc2nc(N3CCOCc4c(C#CC(C)(C)C(F)F)cccc43)c3c(F)cccc3n12 [Example 190, 6-(4,4-Difluoro-3,3-dimethyl-but-1-ynyl)-1-(6-fluoro-1-methyl-[1,2,4]triazolo[4,3-a]quinazolin-5-yl)-3,5-dihydro-2H-4,1-benzoxazepine]	–
6.77	0.202	CC(F)(F)C1(C#Cc2cccc3c2COCCN3c2nc3nncn3c3ccc(F)c(F)c23)CC1 [Example 201, 6-[2-[1-(1,1-Difluoroethyl)cyclopropyl]ethynyl]-1-(6,7-difluoro-[1,2,4]triazolo[4,3-a]quinazolin-5-yl)-3,5-dihydro-2H-4,1-benzoxazepine]	–
6.51	2.84	Cc1nnc2nc(N3CCCCc4c(C#CC(C)(C)C#N)cccc43)c3c(F)c(F)ccc3n12 [Example 186, 4-[1-(6,7-Difluoro-1-methyl-[1,2,4]triazolo[4,3-a]quinazolin-5-yl)-2,3,4,5-tetrahydro-1-benzazepin-6-yl]-2,2-dimethyl-but-3-ynenitrile]	–
6.35	56.1	Cc1nnc2nc(N3CCOCc4c(C#Cc5cn[nH]c5)cccc43)c3c(F)cccc3n12 [Example 211, 6-((1H-pyrazol-4-yl)ethynyl)-1-(6-fluoro-1-methyl-[1,2,4]triazolo[4,3-a]quinazolin-5-yl)-1,2,3,5-tetrahydrobenzo[e][1,4]oxazepine]	–
5.88	0.657	Cc1nnc2nc(N3CCOCc4c(C#CC(C)(C)C(F)(F)F)cccc43)c3cc(F)ccc3n12 [Example 210]	–
5.18	0.858	Cc1nnc2nc(N3CCOCc4c(C#CC5(C(C)(F)F)CC5)cccc43)c3c(F)c(F)ccc3n12 [Example 200, 6-[2-[1-(1,1-Difluoroethyl)cyclopropyl]ethynyl]-1-(6,7-difluoro-1-methyl-[1,2,4]triazolo[4,3-a]quinazolin-5-yl)-3,5-dihydro-2H-4,1-benzoxazepine]	–
4.58	1.09	Cc1nnc2nc(N3CCCCc4c(C#CC5(C)COC5)cccc43)c3c(F)c(F)ccc3n12 [Example 185, 6,7-Difluoro-1-methyl-5-[6-[2-(3-methyloxetan-3-yl)ethynyl]-2,3,4,5-tetrahydro-1-benzazepin-1-yl]-[1,2,4]triazolo[4,3-a]quinazoline]	–
3.83	0.121	CC(C)(C#Cc1cccc2c1COCCN2c1nc2nncn2c2ccc(F)c(F)c12)C(F)(F)F [Example 204, 1-(6,7-Difluoro-[1,2,4]triazolo[4,3-a]quinazolin-5-yl)-6-(4,4,4-trifluoro-3,3-dimethyl-but-1-ynyl)-3,5-dihydro-2H-4,1-benzoxazepine]	–
3.66	1.42	Cc1nnc2nc(N3CCOCc4c(C#CC5(C(F)F)CC5)cccc43)c3c(F)cccc3n12 [Example 191, 6-[2-[1-(Difluoromethyl)cyclopropyl]ethynyl]-1-(6-fluoro-1-methyl-[1,2,4]triazolo[4,3-a]quinazolin-5-yl)-3,5-dihydro-2H-4,1-benzoxazepine]	–
2.85	0.871	Cc1nnc2nc(N3CCCCc4c(C#CC5(C)COC5)cccc43)c3c(F)cccc3n12 [Example 193]	–
2.49	0.545	Cc1nnc2nc(N3CCOCc4c(C#CC5(C)CC5)cccc43)c3c(F)c(F)ccc3n12 [Example 196, 1-(6,7-Difluoro-1-methyl-[1,2,4]triazolo[4,3-a]quinazolin-5-yl)-6-((1-methylcyclopropyl)ethynyl)-1,2,3,5-tetrahydrobenzo[e][1,4]oxazepine]	–
2.1	0.307	Fc1ccc2c(c(N3CCOCc4c(C#CC5(C(F)(F)F)CC5)cccc43)nc3nncn32)c1F [Example 203, 1-(6,7-Difluoro-[1,2,4]triazolo[4,3-a]quinazolin-5-yl)-6-[2-[1-(trifluoromethyl)cyclopropyl]ethynyl]-3,5-dihydro-2H-4,1-benzoxazepine]	–
1.84	3.44	Cc1nnc2nc(N3CCOCc4c(C#CC(C)(C)C#N)cccc43)c3c(F)cccc3n12 [Example 189, 4-[1-(6-Fluoro-1-methyl-[1,2,4]triazolo[4,3-a]quinazolin-5-yl)-3,5-dihydro-2H-4,1-benzoxazepin-6-yl]-2,2-dimethyl-but-3-ynenitrile]	–
0.773	1.68	Cc1nnc2nc(N3CCOCc4c(C#CC5(C)COC5)cccc43)c3c(F)cccc3n12 [Example 194, 1-(6-Fluoro-1-methyl-[1,2,4]triazolo[4,3-a]quinazolin-5-yl)-6-[2-(3-methyloxetan-3-yl)ethynyl]-3,5-dihydro-2H-4,1-benzoxazepine]	–
